In publication PMC11187542, “Identification of fragments targeting SMYD3 using highly sensitive kinetic and multiplexed biosensor-based screening” (RSC Medicinal Chemistry, 2024):

Target: T1, SMYD3 in complex with active site-specific tight-binding inhibitor EPZ031686 (Homo sapiens, UniProt Q9H7B4)
T1 construct: Full length recombinant SMYD3 was produced as previously reported; made in house; host or cells: E. coli BL21(DE3), in some cases Rosetta 2
T1 sequence (Q9H7B4 1-428): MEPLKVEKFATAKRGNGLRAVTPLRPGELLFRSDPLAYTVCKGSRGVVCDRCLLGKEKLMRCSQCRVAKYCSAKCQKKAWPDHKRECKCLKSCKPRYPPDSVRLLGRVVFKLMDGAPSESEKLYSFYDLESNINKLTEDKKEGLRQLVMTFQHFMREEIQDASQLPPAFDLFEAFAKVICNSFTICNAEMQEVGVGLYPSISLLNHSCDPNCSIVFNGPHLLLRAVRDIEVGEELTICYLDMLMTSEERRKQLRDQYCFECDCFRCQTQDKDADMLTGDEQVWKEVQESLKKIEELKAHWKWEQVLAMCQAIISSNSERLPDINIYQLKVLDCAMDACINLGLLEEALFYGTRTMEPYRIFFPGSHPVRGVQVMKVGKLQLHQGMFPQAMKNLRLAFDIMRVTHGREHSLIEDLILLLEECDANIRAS
Test: GCI biosensor kinetic screening, active site blocked SMYD3 surface
Text: A multiplexed screening assay was set up with three different SMYD3 surfaces and a blank reference surface in flow channels 1–4 (FC1–FC4) (Fig. 2a), as described previously.[5] The apo SMYD3 surface detected fragments interacting anywhere on SMYD3, while a SMYD3 surface blocked by active site-specific tight-binding inhibitor EPZ031686 detected compounds binding elsewhere. The denatured surface served as a reference, detecting fragments binding to unfolded proteins, also potentially present to a significant degree in the other two surfaces.
The library was screened using the approach described in Fig. 1, i.e. injection of fragments at 250 μM for increasing durations of time in a single cycle, using a flow rate of 100 μL min^−1, data acquisition set to 40 Hz and with an association time of 5 s and dissociation of 20 s. Each fragment was addressed to all four channels and interactions with the native and blocked surfaces compared. The experimental conditions were chosen to ensure that the assay could reliably characterize the fast and transient interactions expected from typical fragments.
The kinetic screening of 1056 compounds was successfully completed in 72 hours. […] Hits were identified with full kinetic information using dissociation phases.
All interaction kinetic experiments were conducted with a GCI–flow-based biosensor (WAVEdelta, Creoptix AG/Malvern Panalytical) and PCH WAVEchip (Creoptix AG/Malvern Panalytical) sensor chips. The sensor chips were conditioned using injections of borate buffer (10 mM sodium tetraborate pH 8.5, 1 M NaCl). The running buffer composition, if not otherwise stated, was TBS buffer (50 mM Tris, 150 mM NaCl, 0.5 mM TCEP, 0.05% Tween 20, 1% DMSO, pH 8). SMYD3 was diluted to the desired concentration in 10 mM bis-Tris (pH 7.0) and amine coupled to the sensor surface of the PCH sensor chip. The sensor chip was functionalized at 25 °C by immobilising SMYD3 with EDC and NHS (Xantec) using an injection time of 420 s and a flow rate of 10 μL min^−1. The immobilisation levels ranged from 5000 pg mm^−2 to 18 500 pg mm^−2 surface mass to enable analysis of fragments spanning a broad range of affinities. After immobilization, the surface was deactivated with a running buffer containing 50 mM Tris for 420 s. The GCI data referencing and analysis were performed using WAVEcontrol V4.5 (Creoptix AG).
Kinetic measurements with controls and fragments were performed at 15 °C. Analysis of controls and follow up of hits was done using the multi cycle kinetic (MCK) injection of a concentration series for the same time, with a two-fold serial dilution starting at 250 μM for each compound. Solvent correction was performed ranging from 0.5–1.8% DMSO. Blank samples of the running buffer, 1× TBS (50 mM Tris, 150 mM NaCl, 0.5 mM TCEP, 0.05% Tween 20, 1% DMSO, pH 8), were injected during the measurements every fifth cycle. The experimental design illustrated in Fig. 1 was used for the screening against all four surfaces. The sensorgrams were adjusted to account for solvent correction and blank subtraction. Kinetic fitting was performed with the Direct Kinetics engine of WAVEcontrol software V4.5 (Creoptix AG) with a suitable fitting model.

For `Cn1cnc(S(N)(=O)=O)c1` [FL06268], the “LE (ligand efficiency)” value (LE = −RT ln(KD)/n, blocked SMYD3 surface) was 0.63 (kcal^-1 mol^-1)/HA, the Kd (initial kinetic screening, fragment 250 μM, 15 °C, SMYD3 blocked by EPZ031686) was 24 µM and the kd (initial kinetic screening, fragment 250 μM, 15 °C, SMYD3 blocked by EPZ031686, 1:1 model) was 0.83 s⁻¹. It also gave a kon at 250 µM (initial kinetic screening, fragment 250 μM, 15 °C, SMYD3 blocked by EPZ031686, 1:1 model, read-out: ka) of 34100 M⁻¹ s⁻¹.
